Test results from paper PMC11522928 (JACS Au, 2024).

Columns and labels:
[1] = tested on: chick embryos given CoCl2; assay: CoCl2 ischemia / hypoxia study, embryo survival; format: in vivo, Gallus gallus domesticus; conditions: CoCl2 hexahydrate 1.2 mg, 0.54 M
chick embryos = assay: Embryo survival after dosing on the CAM
[2] = tested on: chick chorioallantoic membrane (CAM) vasculature; assay: Chick chorioallantoic membrane; format: in vivo, Gallus gallus domesticus; conditions: 0.75 mg/kg (18.87 µM; antibody 1 mg/mL), n = 2-3, 24 h

O.O.O.O.O.O.[Cl-].[Cl-].[Co+2] [CoCl2, CoCl2 hexahydrate]
mortality of embryos treated only with CoCl2 ([1]; 32× LD50, 12 h, n = 4): 100%
mortality of embryos treated only with CoCl2 ([1]; 32× LD50, 24 h, n = 8): 100%

COC(=O)N[C@@H](Cc1ccccc1)C(=O)N[C@@H](Cc1ccc(NS(=O)(=O)O)cc1)c1csc(-c2cccs2)n1 [Razuprotafib]
embryo survival (chick embryos; dosed at 400 μM, n = 2): 50%
lethality, embryos dead / embryos tested (chick embryos; dosed at 40 mM on the CAM): 7/8

B1: Ang-1: human Ang-1 protein (Gibco) (protein, UniProt Q15389 16-498, looked up)
Angiopoietin-1: HIGCSNQRRSPENSGRRYNRIQHGQCAYTFILPEHDGNCRESTTDQYNTNALQRDAPHVEPDFSSQKLQHLEHVMENYTQWLQKLENYIVENMKSEMAQIQQNAVQNHTATMLEIGTSLLSQTAEQTRKLTDVETQVLNQTSRLEIQLLENSLSTYKLEKQLLQQTNEILKIHEKNSLLEHKILEMEGKHKEELDTLKEEKENLQGLVTRQTYIIQELEKQLNRATTNNSVLQKQQLELMDTVHNLVNLCTKEGVLLKGGKREEEKPFRDCADVYQAGFNKSGIYTIYINNMPEPKKVFCNMDVNGGGWTVIQHREDGSLDFQRGWKEYKMGFGNPSGEYWLGNEFIFAITSQRQYMLRIELMDWEGNRAYSQYDRFHIGNEKQNYRLYLKGHTGTAGKQSSLILHGADFSTKDADNDNCMCKCALMLTGGWWFDACGPSNLNGMFYTAGQNHGKLNGIKWHYFKGPSYSLRSTTMMIRPLDF
whether CAM results recapitulate those of KU04212, in words [2]: None of these agents gave results consistent with KU04212
